Source: patent US7932264B2, “Sinomenine derivatives and preparation and uses thereof” (priority 2005, dated 2011)

Tests used:
Type in all cases: cell-based
[1] = system: LPS-induced TNF-α production; assay: Inhibition of LPS-induced TNF-α production in human whole blood culture; details: LPS 10 ng/ml, 6 h; for IC50: IC50 by program calcdemo, read-out: IC50 to inhibit LPS-induced TNF-α production
Description: (§1) Human blood sample (−20 ml) was taken from a peripheral venous (10 ml) of a healthy volunteer (20-50 years old, nonsmoker) using sterile endotoxin-free ethylenediaminetetraacetic (EDTA) tube and was immediately processed. The blood samples were divided into three different experimental conditions (groups): control, stimulating with LPS alone and LPS plus testing compound. Each group contained five blood samples from different individuals. In control group, 100 μl of whole blood sample were diluted with 900 μL of RPMI 1640 in 24 wells plate. In LPS only group or LPS plus testing compound group, 100 ul of whole blood were diluted with 1 μl testing compound or DMSO and 889 ul of RPMI 1640 (RPMI 1640 was consisted of 25 mM Hepes supplemented with 100 U/mL penicillin, 100 μg/mL streptomycin, 4 mM 1-glutamine, and 10% fetal calf serum) All samples from the three groups were incubated in 37° C. and 5% CO2 for 15 minutes, then 10 μl LPS (1 μg/ml) was added into these samples except samples of control group, and was kept in 37° C. and 5% CO2 for 6 h. The samples were placed on ice for 3 minutes and centrifuged for 10 min at 4° C. and 1500 g. The supernatants of the whole blood culture were taken and kept at −80° C. for analysis of TNF-α, IL-1, IL-6 and IL-8.
The samples from above described protocol were used to determine the release of TNF-α from whole blood culture induced by LPS stimulation and the inhibition by each of 22 tested compounds on the LPS-induced TNF-α production. The TNF-α production was assessed using human TNF-α Enzyme Immunometric Assay Kit (Lot. 235123) from R&D Systems (MN, USA), the detail methods are described as the instruction of the Kit. The concentration of LPS-induced TNF-α production in whole blood culture was 884.2±329.8 pg/ml. These 22 compounds were divided into three groups according to their inhibition potencies on the LPS-induced TNF-α production:
(§2) Since compounds #54 and #44 we obtained were mixed chemical isomers, these two compounds have been excluded from the IC50 experiments. […] concentrations of the compounds (#20, #33, #37, #39, and #48) were tested: 10^−9, 10^−8, 10^−7, 10^−6, 10^−5 and 10^−4 Molar/L. The parent compound, sinomenine, was used as a control. The IC50 was determined by program calcdemo.
The blood samples were incubated in the presence of LPS (concentration. 10 ng/ml) for 6 h. Sinomenine (SIN) was used as control. Because all tested compounds including SIN had no effect at concentration of 10^−9 on LPS-induced TNF-α production, the levels of LPS-induced TNF-α production at 10^−9 of tested compounds in the figures were equivalent to the levels of TNF-α in blood samples with LPS alone. Data in panel a of the figures (a1-a6) present the absolute values of TNF-α; data in panel b (b1-b6) present the percentage inhibition of the tested compounds on LPS-induced TNF-α production. All data were Mean±SD (n=6).

[2] = system: LPS-induced IL-6 production; assay: Inhibition of LPS-induced IL-6 production in human whole blood culture; details: LPS 10 ng/ml, 6 h; for IC50: human whole blood culture, IC50 by program calcdemo, read-out: IC50 to inhibit LPS-induced IL-6 production
Description: as §1, §2
(§3) The inhibition of tested compounds on LPS-induced IL-6 production was assessed using human IL-6 Elisa Kit (Lot number 054204D) from Biosource (Carlsbad, Calif., USA). The methods are briefly described according to the instruction in the Kit as below, all reagents and solutions were supplied with the Kit:
(§4) 1) Reagents and solutions were properly prepared for the experiments to determine bioactivity according to the instruction of the Kit.
2) 50 μL of standard solution supplied with the Kit, blood sample with testing compound and blood sample with LPS alone was added per well. Then, 50 μL of Biotin Conjugate was added to each well. The well was covered with the adhesive strip. Then those wells were incubated for 2 hours at room temperature. 3) Each well was aspirated and washed by filling wash buffer (600 μL) using an autowasher. The liquid was completely removed at each step to ensure good performance. This process was repeated three times for a total of four washes. 4) 100 μL of Streptavidin-HRP working solution was added to each well and the well was covered with a new adhesive strip, incubated for 30 min at room temperature. 5) The same aspiration and wash procedures were repeated as described in step 3. 6) 100 μL of Stabilized Chromogen was added to each well and incubated for 30 minutes at room temperature. These wells were protected from light. 7) 100 μL of Stop Solution was added to each well. 8) The optical density of each well was determined within 30 minutes using a microplate reader set to 450 nm.
The blood samples were incubated in the presence of LPS (concentration: 10 ng/ml) for 6 h. The effects of sinomenine (SIN) on LPS-induced IL-6 production were also examined. […]

[3] = system: LPS-induced IL-8 production; assay: Inhibition of LPS-induced IL-8 production in human whole blood culture; details: LPS 10 ng/ml, 6 h; for IC50: human whole blood culture, IC50 by program calcdemo, read-out: IC50 to inhibit LPS-induced IL-8 production
Description: as §1, §2
as §3, with “IL-8” for “IL-6”, “061302B)” for “054204D)”
as §4
2) Standard solution supplied with the Kit, blood sample with testing compound and blood sample with LPS alone was (50 μL of each item) added into per well. Then, 50 μL of Biotin Conjugate was also added to each well. The well was covered with the adhesive strip. Then those wells were incubated for 1.5 hours at room temperature. 3) Each well was aspirated and washed by filling wash buffer (600 μL) using an autowasher. The liquid was completely removed at each step to ensure good performance. This process was repeated three times for a total of four washes. 4) 100 μL of Streptavidin-HRP working solution was added to each well and the well was covered with a new adhesive strip, incubated for 30 min at room temperature. 5) The same aspiration and wash procedures were repeated as described in step 3. 6) 100 μL of Stabilized Chromogen was added to each well and incubated for 30 minutes at room temperature. These wells were protected from light. 7) 100 μL of Stop Solution was added to each well. 8) The optical density of each well was determined within 30 minutes using a microplate reader set to 450 nm.
The blood samples were incubated in the presence of LPS (concentration: 10 ng/ml) for 6 hours. The effects of sinomenine (SIN) on LPS-induced IL-8 production were also examined. […]

[4] = system: LPS-induced IL-1 production; assay: Inhibition of LPS-induced IL-1 production in human whole blood culture; details: LPS 10 ng/ml, 6 h; for IC50: human whole blood culture, IC50 by program calcdemo, read-out: IC50 to inhibit LPS-induced IL-1 production
Description: as §1, §2
The inhibition of tested compounds on LPS-induced IL-1 production was assessed using human IL-1βEnzyme Immunometric Assay Kit (Lot number 145020) from Cayman Chemical Company (MI, USA). The methods are briefly described according to the instructions supplied with the Kit. All reagents and solutions were supplied with the Kit:
1) Reagents and solutions were properly prepared for the experiments to determine bioactivity according to the instruction.
2) Standard solution provided with the Kit, blood sample with testing compound and blood sample with LPS alone which were prepared as above described, 50 ul for each of these solution or blood samples, was added to each well. Then, 10 μL of DTT, 5 μL of mouse serum and 100 μL of Fab′ were also added into each well together. The well was covered with the adhesive strip. Then those wells were incubated overnight at 4° C. A plate layout was provided to record standards and samples assayed. 3) Each well was washed by filling wash buffer (600 μL) using an autowasher. The liquid was completely removed at each step to ensure good performance. This process was repeated four times for a total of five washes. 4) 200 μL of Ellman's reagent was added to each well and the plate was covered with a piece of dark paper, incubated for 4 hours at room temperature with gentle shaking. 5) The optical density of each well was determined using a microplate reader set to 412 nm.
The blood samples were incubated in the presence of LPS (concentration: 10 ng/ml) for 6 h. The inhibition of Sinomenine (SIN) on LPS-induced IL-1 production was also examined. Because all tested compounds including SIN had no effect at concentration of 10^−9 on LPS-induced IL-1 production, the levels of LPS-induced IL-1 production at 10^−9 of tested compounds in the figures were equivalent to the levels of IL-1 in blood samples with LPS alone. […]

Structure (SMILES)	effect on LPS-induced TNF-α production at concentration of 10^−9 ([1]; 10^−9 mol/L)	effect on LPS-induced IL-6 production at concentration of 10^−9 ([2]; 10^−9 mol/L)	IC50 [2] [µM]	effect on LPS-induced IL-8 production at concentration of 10^−9 ([3]; 10^−9 mol/L)	IC50 [3] [µM]	effect on LPS-induced IL-1 production at concentration of 10^−9 ([4]; 10^−9 mol/L)	inhibition at 10 µM ([1]; compound 10^−5 mol/L, human whole blood culture, read-out: inhibition of LPS-induced TNF-α production compared to LPS alone) [%]	IC50 ([1]; human whole blood culture) [µM]	IC50 [4] [µM]
COC1=CC2[C@@H]3Cc4ccc(OC)c(O)c4[C@]2(CCN3C)CC1=O (stereo partly drawn) [Compound 1, sinomenine]	no effect	no effect	1700	no effect	74	no effect			
COC1=CC2[C@@H]3Cc4ccc(OC)c(O)c4[C@]2(CCN3C(=O)c2cc(C)cc(C)c2)CC1=O (stereo partly drawn) [Compound 9]							< 30		
COC(=O)c1cccc(C)c1S(=O)(=O)N1CC[C@@]23CC(=O)C(OC)=C[C@@H]2[C@@H]1Cc1ccc(OC)c(O)c13 [Compound 33]			8.7		7300			4.4	100
COC1=C[C@@H]2[C@@H]3Cc4ccc(OC)c(O)c4[C@]2(CCN3C(=O)c2cccnc2)CC1=O [Compound 37]					7600			420	8.8
COC1=C[C@@H]2[C@@H]3Cc4ccc(OC)c(O)c4[C@]2(CCN3C(=O)c2ccc(C)cc2)CC1=O [Compound 39]			5.3					13	4900
COc1ccc2c(c1OC)C13CCN(C)C(C2)C1CC=NN(S(=O)(=O)c1ccc(C)cc1)C(O)C3 (stereo not drawn) [Compound 48]			1000		3800			760	9500
